From patent US20100168093A1, “SUBSTITUTED 3-AMINO-4 -HYDROXY PYRROLIDINES COMPOUNDS, THEIR PREPARATION AND USE AS MEDICAMENTS” (priority 2006, published 2010)

Legend:
[1] = target: T1, Sigma-1 receptor (Cavia porcellus, UniProt Q60492); assay: Sigma-1 receptor binding assay, [3H](+)-pentazocine displacement in brain membranes; conditions: compound at 10^−7 M, [3H](+)-pentazocine 0.5 nM, guinea pig brain membranes, non-specific binding defined by 1 μM haloperidol; for inhibition at 0.1 µM: 2.5 h, read-out: Percent Replacement Sigma-1 receptor [10^−7 M]
T1 construct: guinea pig brains were homogenized; from tissue; host or cells: guinea pig brain membranes
Method: Some representative compounds of the invention were tested for their activity as sigma (sigma-1) inhibitors. The following protocol was followed:
Brain membrane preparation and binding assays for the σ1-receptor were performed as described (DeHaven-Hudkins et al., 1992, Eur. J. Pharmacol. 227, 371-378.) with some modifications. In brief, guinea pig brains were homogenized in 10 vols. (w/v) of Tris-HCl 50 mM 0.32 M sucrose, pH 7.4, with a Kinematica Polytron PT 3000 at 15000 r.p.m. for 30 s. The homogenate was centrifuged at 1000g for 10 min at 4° C. and the supematants collected and centrifuged again at 48000 g for 15 min at 4° C. The pellet was resuspended in 10 volumes of Tris-HCl buffer (50 mM, pH 7.4), incubated at 37° C. for 30 min, and centrifuged at 48000 g for 20 min at 4° C. Following this, the pellet was resuspended in fresh Tris-HCl buffer (50 mM, pH 7.4) and stored on ice until use.
Each assay tube contained 10 μL of [^3H](+)-pentazocine (final concentration of 0.5 nM), 900 μL of the tissue suspension to a final assay volume of 1 mL and a final tissue concentration of approximately 30 mg tissue net weight/mL. Non-specific binding was defined by addition of a final concentration of 1 μM haloperidol. All tubes were incubated at 37° C. for 150 min before termination of the reaction by rapid filtration over Schleicher & Schuell GF 3362 glass fibre filters [previously soaked in a solution of 0.5% polyethylenimine for at least 1 h]. Filters were then washed with four times with 4 mL of cold Tris-HCl buffer (50 mM, pH 7.4). Following addition of scintillation cocktail, the samples were allowed to equilibrate overnight. The amount of bound radioactivity was determined by liquid scintillation spectrometry using a Wallac Winspectral 1414 liquid scintillation counter. Protein concentrations were determined by the method of Lowry et al. (1951; J. Biol. Chem, 193, 265.).

T1 sequence (Q60492 whole entry): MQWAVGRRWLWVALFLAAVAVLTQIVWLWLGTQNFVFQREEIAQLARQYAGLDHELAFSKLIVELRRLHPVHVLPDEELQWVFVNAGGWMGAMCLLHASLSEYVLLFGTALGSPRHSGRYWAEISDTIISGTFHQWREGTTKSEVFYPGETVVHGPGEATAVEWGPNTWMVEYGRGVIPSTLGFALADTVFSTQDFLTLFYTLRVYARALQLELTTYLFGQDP

melting point [°C]	inhibition at 0.1 µM [1] [%]	Percent Replacement Sigma-1 receptor [10^−7 M] [1] [%]	SMILES
	107		O[C@@H]1CN(Cc2ccccc2)C[C@H]1N1CCN(c2ccccc2Cl)CC1 [Example 85]
	86.2		O[C@H]1CN(Cc2ccccc2)C[C@@H]1N1CCN(c2ccccc2Cl)CC1 [Example 86, (3S,4S)-1-benzyl-4-(4-(2-chlorophenyl)piperazin-1-yl)pyrrolidin-3-ol]
	93.1		O[C@@H]1CN(Cc2ccccc2)C[C@H]1N1CCN(c2ccc(Cl)c(Cl)c2)CC1 [Example 88, (3,4-trans)-1-benzyl-4-(4-(3,4-dichlorophenyl)piperazin-1-yl)pyrrolidin-3-ol]

Continued, compound first:

SMILES	melting point [°C]	inhibition at 0.1 µM [1] [%]	Percent Replacement Sigma-1 receptor [10^−7 M] [1] [%]
O[C@@H]1CN(Cc2ccccc2)C[C@H]1N1CCN(Cc2ccccc2)CC1 [Example 17, (3,4-trans)-1-benzyl-4-(4-benzylpiperazin-1-yl)pyrrolidine-3-ol]	102 to 103	82.1	
O[C@@H]1CN(Cc2ccccc2)C[C@H]1N1CCN(c2ccccc2)CC1 [Example 18, (3,4-trans)-1-benzyl-4-(4-phenylpiperazin-1-yl)pyrrolidine-3-ol]	120 to 123	90.9	
O=C(c1ccccc1)N1CCN([C@@H]2CN(Cc3ccccc3)C[C@H]2O)CC1 [Example 20, (4-((3,4-trans)-1-benzyl-4-hydroxypyrrolidine-3-yl)piperazin-1-yl)(phenyl)methanone]	130 to 134		
O[C@@H]1CN(Cc2ccccc2)C[C@H]1N1CCN(c2ccccc2Cl)CC1 [Example 84, (3,4-trans)-1-benzyl-4-(4-(2-chlorophenyl)piperazin-1-yl)pyrrolidin-3-ol]			94.6
